Measurements as given in the NIST ThermoML archive (doi:10.1021/je4007844).
± gives the expanded uncertainty stated by the source.

Settings: Liquid; for viscosity: Concentric cylinders viscometry

CCCCCC[n+]1ccn(C)c1.O=S(=O)([N-]S(=O)(=O)C(F)(F)F)C(F)(F)F
101.33 kPa
Settings | viscosity [mPa·s]
293.15 K | 90.06 ± 1.7
303.15 K | 56.25 ± 0.97
313.15 K | 37.44 ± 0.65
323.15 K | 26.25 ± 0.45
333.15 K | 19.21 ± 0.33
343.15 K | 14.55 ± 0.25
353.15 K | 11.36 ± 0.2
363.15 K | 9.091 ± 0.16

Settings | mass density [kg/m3]
293.15 K, 101.33 kPa, Vibrating tube method | 1376.3 ± 2
303.15 K, 101.33 kPa, Vibrating tube method | 1367.1 ± 2
312.6 K, 100 kPa, Bellows volumetry | 1358.5 ± 1.8
312.6 K, 10000 kPa, Bellows volumetry | 1365.7 ± 1.8
312.6 K, 20000 kPa, Bellows volumetry | 1373 ± 1.8
312.6 K, 30000 kPa, Bellows volumetry | 1380.1 ± 1.8
312.6 K, 40000 kPa, Bellows volumetry | 1386.7 ± 1.8
312.6 K, 50000 kPa, Bellows volumetry | 1392.8 ± 1.8
312.6 K, 60000 kPa, Bellows volumetry | 1399 ± 1.8
312.6 K, 70000 kPa, Bellows volumetry | 1404.6 ± 1.8
312.6 K, 80000 kPa, Bellows volumetry | 1410.2 ± 1.8
312.6 K, 90000 kPa, Bellows volumetry | 1415.5 ± 1.8
312.6 K, 100000 kPa, Bellows volumetry | 1420.7 ± 1.8
312.6 K, 110000 kPa, Bellows volumetry | 1425.8 ± 1.8
312.6 K, 120000 kPa, Bellows volumetry | 1430.8 ± 1.8
312.6 K, 130000 kPa, Bellows volumetry | 1435.5 ± 1.8
312.6 K, 140000 kPa, Bellows volumetry | 1440.1 ± 1.8
312.6 K, 150000 kPa, Bellows volumetry | 1444.5 ± 1.8
312.6 K, 160000 kPa, Bellows volumetry | 1448.9 ± 1.8
312.6 K, 170000 kPa, Bellows volumetry | 1453 ± 1.8
312.6 K, 180000 kPa, Bellows volumetry | 1457.6 ± 1.8
312.6 K, 190000 kPa, Bellows volumetry | 1461.6 ± 1.8
312.6 K, 200000 kPa, Bellows volumetry | 1465.9 ± 1.8
313.15 K, 101.33 kPa, Vibrating tube method | 1358 ± 2
323.15 K, 101.33 kPa, Vibrating tube method | 1348.9 ± 2
332.4 K, 100 kPa, Bellows volumetry | 1340 ± 1.8
332.4 K, 10000 kPa, Bellows volumetry | 1348.1 ± 1.8
332.4 K, 20000 kPa, Bellows volumetry | 1355.9 ± 1.8
332.4 K, 30000 kPa, Bellows volumetry | 1363.3 ± 1.8
332.4 K, 40000 kPa, Bellows volumetry | 1370.4 ± 1.8
332.4 K, 50000 kPa, Bellows volumetry | 1377 ± 1.8
332.4 K, 60000 kPa, Bellows volumetry | 1383.2 ± 1.8
332.4 K, 70000 kPa, Bellows volumetry | 1389.3 ± 1.8
332.4 K, 80000 kPa, Bellows volumetry | 1395.1 ± 1.8
332.4 K, 90000 kPa, Bellows volumetry | 1400.5 ± 1.8
332.4 K, 100000 kPa, Bellows volumetry | 1406.3 ± 1.8
332.4 K, 110000 kPa, Bellows volumetry | 1411.5 ± 1.8
332.4 K, 120000 kPa, Bellows volumetry | 1416.5 ± 1.8
332.4 K, 130000 kPa, Bellows volumetry | 1421.3 ± 1.8
332.4 K, 140000 kPa, Bellows volumetry | 1426.1 ± 1.8
332.4 K, 150000 kPa, Bellows volumetry | 1430.9 ± 1.8
332.4 K, 160000 kPa, Bellows volumetry | 1435.4 ± 1.8
332.4 K, 170000 kPa, Bellows volumetry | 1439.7 ± 1.8
332.4 K, 180000 kPa, Bellows volumetry | 1444 ± 1.8
332.4 K, 190000 kPa, Bellows volumetry | 1448.4 ± 1.8
332.4 K, 200000 kPa, Bellows volumetry | 1452.6 ± 1.8
333.15 K, 101.33 kPa, Vibrating tube method | 1339.9 ± 2
343.15 K, 101.33 kPa, Vibrating tube method | 1331 ± 2
352.3 K, 100 kPa, Bellows volumetry | 1322.2 ± 1.8
352.3 K, 10000 kPa, Bellows volumetry | 1330.9 ± 1.8
352.3 K, 20000 kPa, Bellows volumetry | 1339.3 ± 1.8
352.3 K, 30000 kPa, Bellows volumetry | 1347.3 ± 1.8
352.3 K, 40000 kPa, Bellows volumetry | 1354.5 ± 1.8
352.3 K, 50000 kPa, Bellows volumetry | 1361.5 ± 1.8
352.3 K, 60000 kPa, Bellows volumetry | 1368.2 ± 1.8
352.3 K, 70000 kPa, Bellows volumetry | 1374.6 ± 1.8
352.3 K, 80000 kPa, Bellows volumetry | 1380.6 ± 1.8
352.3 K, 90000 kPa, Bellows volumetry | 1386.5 ± 1.8
352.3 K, 100000 kPa, Bellows volumetry | 1392 ± 1.8
352.3 K, 110000 kPa, Bellows volumetry | 1397.5 ± 1.8
352.3 K, 120000 kPa, Bellows volumetry | 1402.7 ± 1.8
352.3 K, 130000 kPa, Bellows volumetry | 1408 ± 1.8
352.3 K, 140000 kPa, Bellows volumetry | 1412.8 ± 1.8
352.3 K, 150000 kPa, Bellows volumetry | 1417.6 ± 1.8
352.3 K, 160000 kPa, Bellows volumetry | 1422.1 ± 1.8
352.3 K, 170000 kPa, Bellows volumetry | 1426.8 ± 1.8
352.3 K, 180000 kPa, Bellows volumetry | 1431.4 ± 1.8
352.3 K, 190000 kPa, Bellows volumetry | 1435.5 ± 1.8
352.3 K, 200000 kPa, Bellows volumetry | 1439.9 ± 1.8
353.15 K, 101.33 kPa, Vibrating tube method | 1322.2 ± 2
363.15 K, 101.33 kPa, Vibrating tube method | 1313.3 ± 2
372.5 K, 100 kPa, Bellows volumetry | 1304.4 ± 1.8
372.5 K, 10000 kPa, Bellows volumetry | 1313.7 ± 1.8
372.5 K, 20000 kPa, Bellows volumetry | 1322.6 ± 1.8
372.5 K, 30000 kPa, Bellows volumetry | 1330.9 ± 1.8
372.5 K, 40000 kPa, Bellows volumetry | 1338.6 ± 1.8
372.5 K, 50000 kPa, Bellows volumetry | 1346 ± 1.8
372.5 K, 60000 kPa, Bellows volumetry | 1353 ± 1.8
372.5 K, 70000 kPa, Bellows volumetry | 1359.6 ± 1.8
372.5 K, 80000 kPa, Bellows volumetry | 1366 ± 1.8
372.5 K, 90000 kPa, Bellows volumetry | 1372.1 ± 1.8
372.5 K, 100000 kPa, Bellows volumetry | 1378 ± 1.8
372.5 K, 110000 kPa, Bellows volumetry | 1383.7 ± 1.8
372.5 K, 120000 kPa, Bellows volumetry | 1389.1 ± 1.8
372.5 K, 130000 kPa, Bellows volumetry | 1394.3 ± 1.8
